This is an account of results in patent US20240307419A1, “CONFORMATIONALLY-CONSTRAINED INHIBITORS OF 3C OR 3C-LIKE PROTEASES” (priority 2021, published 2024).

For data set [1], the target named is SARS-CoV-2 3CLpro (Severe acute respiratory syndrome coronavirus 2 (2019-nCoV) (SARS-CoV-2), UniProt P0DTD1). Put plainly: biochemical. It counts as biochemical. As to conditions: for IC50: read-out: IC50.
In data set [2] the test system is Huh-7, CRFK, or CCL1 cells.
Data set [3] has as its target MERS-CoV 3CLpro (Middle East respiratory syndrome-related coronavirus (isolate United Kingdom/H123990006/2012) (MERS-CoV) (Betacoronavirus England 1), UniProt K9N7C7). Format: biochemical.
Data set [4] relates to CRFK cells. The note with it: cat.

Sequence of MERS-CoV 3CLpro (K9N7C7 3248-3553 limits assumed): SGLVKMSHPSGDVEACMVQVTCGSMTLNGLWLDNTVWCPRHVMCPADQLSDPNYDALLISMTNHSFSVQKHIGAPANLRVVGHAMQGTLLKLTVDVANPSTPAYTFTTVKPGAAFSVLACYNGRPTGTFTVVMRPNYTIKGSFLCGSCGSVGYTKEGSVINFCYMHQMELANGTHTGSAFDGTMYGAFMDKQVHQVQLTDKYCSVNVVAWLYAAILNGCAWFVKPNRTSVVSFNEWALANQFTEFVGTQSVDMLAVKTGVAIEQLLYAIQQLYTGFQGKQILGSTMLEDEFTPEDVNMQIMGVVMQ

Take `[2H]C([2H])(OC(=O)N[C@@H](CC(C)C)C(=O)N[C@H](C=O)C[C@@H]1CCNC1=O)[C@@H]1C[C@@H]2C=CC[C@@H](C2)C1` [Compound 2d, ((1S,3S,5R)-Bicyclo[3.3.1]non-6-en-3-yl)methyl-d2 ((S)-4-methyl-1-oxo-1-(((S)-1-oxo-3-((S)-2-oxopyrrolidin-3-yl)propan-2-yl)amino)pentan-2-yl)carbamate]: in data set [1], the IC50 – broadly, the midpoint of a concentration-inhibition curve – was 280 ± 80 nM. In addition, in data set [2], the CC50 (usually the concentration that lowers cell viability or growth by half) is more than 100000 nM.
In the same order, the values of `CC(C)C[C@H](NC(=O)OCC1CC2C=CC1C2)C(=O)N[C@H](C=O)C[C@@H]1CCNC1=O` (stereo partly drawn) [Compound 2e, Bicyclo[2.2.1]hept-5-en-2-ylmethyl ((S)-4-methyl-1-oxo-1-(((S)-1-oxo-3-((S)-2-oxopyrrolidin-3-yl)propan-2-yl)amino)pentan-2-yl)carbamate] are 260 ± 50 nM and more than 100000 nM.
`CC(C)C[C@H](NC(=O)OCC1CC2CCC1C2)C(=O)N[C@H](C=O)C[C@@H]1CCNC1=O` (stereo partly drawn) [Compound 2f, Bicyclo[2.2.1]heptan-2-ylmethyl ((S)-4-methyl-1-oxo-1-(((S)-1-oxo-3-((S)-2-oxopyrrolidin-3-yl)propan-2-yl)amino)pentan-2-yl)carbamate]: the IC50 was 140 ± 20 nM in data set [1] and 63 ± 3 nM in data set [3]. This compound yielded a CC50 in data set [2] of more than 100000 nM.
As to `CC(C)C[C@H](NC(=O)O[C@@H]1C[C@H]2CC[C@@H](C1)N2C(=O)OC(C)(C)C)C(=O)N[C@H](C=O)C[C@@H]1CCNC1=O` [Compound 2g, tert-Butyl (1R,3s,5S)-3-((((S)-4-methyl-1-oxo-1-(((S)-1-oxo-3-((S)-2-oxopyrrolidin-3-yl)propan-2-yl)amino)pentan-2-yl)carbamoyl)oxy)-8-azabicyclo[3.2.1]octane-8-carboxylate], in data set [1], the IC50 stood at 1900 ± 140 nM. Moreover, the CC50 in data set [2] was more than 100000 nM.
For the compound `CC(C)C[C@H](NC(=O)O[C@@H]1C[C@H]2CC[C@@H](C1)N2C(=O)OCc1ccccc1)C(=O)N[C@H](C=O)C[C@@H]1CCNC1=O` [Compound 2h, Benzyl (1R,3s,5S)-3-((((S)-4-methyl-1-oxo-1-(((S)-1-oxo-3-((S)-2-oxopyrrolidin-3-yl)propan-2-yl)amino)pentan-2-yl)carbamoyl)oxy)-8-azabicyclo[3.2.1]octane-8-carboxylate], the IC50 in data set [1] was found to be 390 ± 20 nM. For the same compound, the CC50 in data set [2] is more than 100000 nM.
Regarding `[2H]C([2H])(OC(=O)N[C@@H](CC(C)C)C(=O)N[C@H](C=O)C[C@@H]1CCNC1=O)C12CCC(CCCCC)(CC1)CC2` [Compound 2j, (4-Pentylbicyclo[2.2.2]octan-1-yl)methyl-d2 ((S)-4-methyl-1-oxo-1-(((S)-1-oxo-3-((S)-2-oxopyrrolidin-3-yl)propan-2-yl)amino)pentan-2-yl)carbamate], the IC50 in data set [1] is 310 ± 30 nM. In addition, half-maximal cytotoxicity in data set [2] (CC50) was put at 20000 ± 3000 nM.
With `CC(C)C[C@H](NC(=O)OCC12CC3CC(CC(C3)C1)C2)C(=O)N[C@H](C=O)C[C@H]1CCNC1=O` [Compound 2k, ((3S,5S,7S)-Adamantan-1-yl)methyl((S)-4-methyl-1-oxo-1-(((S)-1-oxo-3-((S)-2-oxopyrrolidin-3-yl)propan-2-yl)amino)pentan-2-yl)carbamate], the IC50 in data set [1] was 180 ± 40 nM; in data set [3] it was 55 ± 2 nM. This compound came in with a CC50 in data set [2] of more than 100000 nM.
As to `CC(C)C[C@H](NC(=O)OCCC12CC3CC(CC(C3)C1)C2)C(=O)N[C@H](C=O)C[C@H]1CCNC1=O` [Compound 2m, 2-((3S,5S,7S)-Adamantan-1-yl)ethyl ((S)-4-methyl-1-oxo-1-(((S)-1-oxo-3-((S)-2-oxopyrrolidin-3-yl)propan-2-yl)amino)pentan-2-yl)carbamate], in data set [1], the IC50 was 270 ± 20 nM. This compound displayed a CC50 in data set [2] of more than 100000 nM.
Turning to `CC(C)C[C@H](NC(=O)OC[C@@]12C[C@@H]3C[C@@H](C[C@@](O)(C3)C1)C2)C(=O)N[C@H](C=O)C[C@@H]1CCNC1=O` [Compound 2n, ((1r,3R,5R,7S)-3-Hydroxyadamantan-1-yl)methyl ((S)-4-methyl-1-oxo-1-(((S)-1-oxo-3-((S)-2-oxopyrrolidin-3-yl)propan-2-yl)amino)pentan-2-yl)carbamate], in data set [1], the “decrease in potency compared to 2k/3k” value is approximately 5 fold and the IC50 is 820 ± 190 nM. The compound also displayed a CC50 in data set [2] of more than 100000 nM.
As for `[2H]C([2H])(OC(=O)N[C@@H](CC(C)C)C(=O)N[C@@H](C[C@@H]1CCNC1=O)C(O)S(=O)(=O)[O-])[C@@H]1C[C@@H]2C=CC[C@@H](C2)C1.[Na+]` (stereo partly drawn) [Compound 3d, Sodium (2S)-2-((S)-2-(((((1S,3S,5R)-bicyclo[3.3.1]non-6-en-3-yl)methoxy-d2)carbonyl)amino)-4-methylpentanamido)-1-hydroxy-3-((S)-2-oxopyrrolidin-3-yl)propane-1-sulfonate], the IC50 in data set [1] came out at 300 ± 30 nM. Moreover, the CC50 in data set [2] is more than 100000 nM.
In the same order, the values of `CC(C)C[C@H](NC(=O)OCC1CC2C=CC1C2)C(=O)N[C@@H](C[C@@H]1CCNC1=O)C(O)S(=O)(=O)O` (stereo partly drawn) [Compound 3e, Sodium (2S)-2-((2S)-2-(((bicyclo[2.2.1]hept-5-en-2-ylmethoxy)carbonyl)amino)-4-methylpentanamido)-1-hydroxy-3-((S)-2-oxopyrrolidin-3-yl)propane-1-sulfonate] are 280 ± 30 nM and more than 100000 nM.
As to `CC(C)C[C@H](NC(=O)OCC1CC2CCC1C2)C(=O)N[C@@H](C[C@@H]1CCNC1=O)C(O)S(=O)(=O)O` (stereo partly drawn) [Compound 3f, Sodium (2S)-2-((2S)-2-(((bicyclo[2.2.1]heptan-2-ylmethoxy)carbonyl)amino)-4-methylpentanamido)-1-hydroxy-3-((S)-2-oxopyrrolidin-3-yl)propane-1-sulfonate], the IC50 in data set [1] was 100 ± 10 nM; in data set [3], 58 ± 2 nM. The compound also yielded a CC50 in data set [2] of more than 100000 nM.
As to `CC(C)C[C@H](NC(=O)OC1CC2CCC(C1)N2C(=O)OC(C)(C)C)C(=O)N[C@@H](C[C@H]1CCNC1=O)C(O)S(=O)(=O)O` (stereo partly drawn) [Compound 3g, Sodium (2S)-2-((S)-2-(((((1R,3s,5S)-8-(tert-butoxycarbonyl)-8-azabicyclo[3.2.1]octan-3-yl)oxy)carbonyl)amino)-4-methylpentanamido)-1-hydroxy-3-((S)-2-oxopyrrolidin-3-yl)propane-1-sulfonate], in data set [1], the IC50 is 1710 ± 160 nM. For the same compound, in data set [2], the CC50 is more than 100000 nM.
In the same order, the values of `CC(C)C[C@H](NC(=O)OC1CC2CCC(C1)N2C(=O)OCc1ccccc1)C(=O)N[C@@H](C[C@H]1CCNC1=O)C(O)S(=O)(=O)O` (stereo partly drawn) [Compound 3h, Sodium (2S)-2-((S)-2-(((((1R,3s,5S)-8-((benzyloxy)carbonyl)-8-azabicyclo[3.2.1]octan-3-yl)oxy)carbonyl)amino)-4-methylpentanamido)-1-hydroxy-3-((S)-2-oxopyrrolidin-3-yl)propane-1-sulfonate] are 370 ± 30 nM and more than 100000 nM.
For the compound `CC(C)C[C@H](NC(=O)OCC12CC3CC(CC(C3)C1)C2)C(=O)N[C@@H](C[C@H]1CCNC1=O)C(O)S(=O)(=O)O` (stereo partly drawn) [Compound 3k, Sodium (2S)-2-((S)-2-(((((3S,5S,7S)-adamantan-1-yl)methoxy)carbonyl)amino)-4-methylpentanamido)-1-hydroxy-3-((S)-2-oxopyrrolidin-3-yl)propane-1-sulfonate], the values for the IC50 in data set [1] and in data set [3] were 150 ± 40 nM and 53 ± 3 nM, respectively. Further, in data set [2], the CC50 is more than 100000 nM.
As to `CC(C)C[C@H](NC(=O)OCCC12CC3CC(CC(C3)C1)C2)C(=O)N[C@@H](C[C@H]1CCNC1=O)C(O)S(=O)(=O)O` (stereo partly drawn) [Compound 3m, Sodium (2S)-2-((S)-2-(((2-((3S,5S,7S)-adamantan-1-yl)ethoxy)carbonyl)amino)-4-methylpentanamido)-1-hydroxy-3-((S)-2-oxopyrrolidin-3-yl)propane-1-sulfonate], the IC50 in data set [1] came to 250 ± 40 nM. The compound further yielded a CC50 in data set [2] of more than 100000 nM.
For the compound `CC(C)C[C@H](NC(=O)OCC12CC3CC(CC(O)(C3)C1)C2)C(=O)N[C@@H](C[C@H]1CCNC1=O)C(O)S(=O)(=O)[O-].[Na+]` (stereo partly drawn) [Compound 3n, Sodium (2S)-1-hydroxy-2-((S)-2-(((((1r,3R,5R,7S)-3-hydroxyadamantan-1-yl)methoxy)carbonyl)amino)-4-methylpentanamido)-3-((S)-2-oxopyrrolidin-3-yl)propane-1-sulfonate], in data set [1], the “decrease in potency compared to 2k/3k” value was approximately 5 fold and the IC50 was 1030 ± 240 nM. Also, the CC50 in data set [2] was more than 100000 nM.
As for `CC(C)C[C@H](NC(=O)OCC1CN(C(=O)C2CC3CCC2C3)C1)C(=O)N[C@@H](C[C@H]1CCNC1=O)C(O)S(=O)(=O)O` (stereo partly drawn) [Compound 16c, Sodium (2S)-2-((2S)-2-((((1-(bicyclo[2.2.1]heptane-2-carbonyl)azetidin-3-yl)methoxy)carbonyl)amino)-4-methylpentanamido)-1-hydroxy-3-((R)-2-oxopyrrolidin-3-yl)propane-1-sulfonate], in data set [4], the CC50 was more than 100000 nM.
Turning to `CC(C)C[C@H](NC(=O)OCC1CN(S(C)(=O)=O)C1)C(=O)N[C@H](C=O)C[C@H]1CCNC1=O` [Compound 17b, (1-(Methylsulfonyl)azetidin-3-yl)methyl ((S)-4-methyl-1-oxo-1-(((S)-1-oxo-3-((R)-2-oxopyrrolidin-3-yl)propan-2-yl)amino)pentan-2-yl)carbamate], the CC50 in data set [4] is more than 100000 nM.
Same read-out and setting: as for `CC(C)C[C@H](NC(=O)OCC1CN(S(C)(=O)=O)C1)C(=O)N[C@@H](C[C@H]1CCNC1=O)C(O)S(=O)(=O)O` (stereo partly drawn) [Compound 17c, Sodium (2S)-1-hydroxy-2-((S)-4-methyl-2-((((1-(methylsulfonyl)azetidin-3-yl)methoxy)carbonyl)amino)pentanamido)-3-((R)-2-oxopyrrolidin-3-yl)propane-1-sulfonate], the figure is more than 100000 nM.
